What follows are compounds tested against T1, GLP-1R (Homo sapiens, UniProt P43220) (assay: EC20 GLP-1(9-36) PAM cAMP assay: dose response of compound in the presence of fixed concentration of GLP-1(9-36)). Conditions: GLP-1R CRE-bla CHO-K1 cells, compound dose response in presence of fixed concentration of GLP-1(9-36).
T1 construct: host or cells: CRE-bla CHO-K1
Format: cell-based
Procedure, shortened: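 GLP-1R CRE-bla CHO-K1 cells in HBSS/10 mM Hepes/0.1% BSA pH 7.4 with IBMX got a 12-point compound dose response plus fixed EC20 GLP-1(9-36), 30 min at 37 °C. cAMP measured by HitHunter luminescence against a standard curve; EC50 and Emax by non-linear regression.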

T1 sequence (P43220 24-463): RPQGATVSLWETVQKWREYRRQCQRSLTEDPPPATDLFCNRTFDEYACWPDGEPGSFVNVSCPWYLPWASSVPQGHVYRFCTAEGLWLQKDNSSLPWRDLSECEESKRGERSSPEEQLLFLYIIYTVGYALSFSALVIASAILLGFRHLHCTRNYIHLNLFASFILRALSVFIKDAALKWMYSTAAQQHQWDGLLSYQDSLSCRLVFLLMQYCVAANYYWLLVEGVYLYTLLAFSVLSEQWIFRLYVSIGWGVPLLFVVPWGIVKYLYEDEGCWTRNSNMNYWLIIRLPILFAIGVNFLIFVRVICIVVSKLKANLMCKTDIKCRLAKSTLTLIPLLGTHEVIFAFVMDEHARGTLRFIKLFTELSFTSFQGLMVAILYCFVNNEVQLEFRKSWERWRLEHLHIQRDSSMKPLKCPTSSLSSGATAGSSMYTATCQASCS
T1 sequence (P01275 100-127 partner limits assumed): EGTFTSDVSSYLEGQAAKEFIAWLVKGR

Row | EC50 [nM] | SMILES
1 | 800 to 2500 | CCCCCCCOc1ccc(-c2cnc(-c3ccc(C[C@H](NC(=O)c4cc5ccccc5s4)C(=O)O)cc3)nc2)cc1 [Compound 156]
2 | 800 to 2500 | CCCCCCCOc1ccc(-c2cnc(-c3ccc(C[C@H](NC(=O)c4cc5ccc(C)cc5s4)C(=O)O)cc3)nc2)cc1 [Compound 157]
3 | 800 to 2500 | CCc1ccc(C(=O)N[C@@H](Cc2ccc(-c3ncc(-c4ccc(C(C)(C)C)cc4)cn3)cc2)C(=O)O)cc1 [Compound 160]
4 | 800 to 2500 | CC(C)c1ccc(C(=O)N[C@@H](Cc2ccc(-c3ncc(-c4ccc(C(C)(C)C)cc4)cn3)cc2)C(=O)O)cc1 [Compound 161]
5 | 800 to 2500 | CCCc1ccc(C(=O)N[C@@H](Cc2ccc(-c3ncc(-c4ccc(C(C)(C)C)cc4)cn3)cc2)C(=O)O)cc1 [Compound 164]
6 | 800 to 2500 | CCc1ccc(C(=O)N[C@@H](Cc2ccc(-c3ncc(-c4ccc(C(C)(C)C)cc4)cn3)cc2)C(=O)O)s1 [Compound 166]
7 | 800 to 2500 | CC(C)n1cc(C(=O)N[C@@H](Cc2ccc(-c3ncc(-c4ccc(C(C)(C)C)cc4)cn3)cc2)C(=O)O)cn1 [Compound 167]
8 | 800 to 2500 | CC(C)(C)c1ccc(-c2cnc(-c3ccc(C[C@H](NC(=O)c4cc(C(C)(C)C)n[nH]4)C(=O)O)cc3)nc2)cc1 [Compound 168]
9 | < 800 | CC(C)c1ncc(C(=O)N[C@@H](Cc2ccc(-c3ncc(-c4ccc(C(C)(C)C)cc4)cn3)cc2)C(=O)O)s1 [Compound 180]
10 | 800 to 2500 | CC(C)S(=O)(=O)c1ccc(C(=O)N[C@@H](Cc2ccc(-c3ncc(-c4ccc(C(C)(C)C)cc4)cn3)cc2)C(=O)O)cc1 [Compound 181]
11 | 800 to 2500 | CCCCCCCOc1ccc(-c2cnc(-c3ccc(C[C@H](NS(=O)(=O)c4ccccc4)C(=O)O)cc3)nc2)cc1 [Compound 184]
12 | 800 to 2500 | CCCCCCCOc1ccc(-c2cnc(-c3ccc(C[C@@H](NC(=O)c4ccc(C(C)(C)C)s4)C(=O)O)cc3)nc2)cc1 [Compound 193]
13 | 800 to 2500 | CC(C)(C)c1ccc(C(=O)N[C@@H](Cc2ccc(-c3ncc(-c4ccc(N5CCCCC5)cc4)cn3)cc2)C(=O)O)cc1 [Compound 194]
14 | 5000 to 10000 | COc1ccc(-c2cnc(-c3ccc(C[C@H](NC(=O)c4ccc(C(C)(C)C)cc4)C(=O)O)cc3)nc2)cc1 [Compound 198]
15 | 800 to 2500 | CC(C)(C)c1ccc(C(=O)N[C@@H](Cc2ccc(-c3ncc(-c4ccc(C(C)(C)C)cc4)cn3)cc2)C(=O)O)cc1 [Compound 199]
16 | 5000 to 10000 | CC(C)(C)c1ccc(C(=O)N[C@@H](Cc2ccc(-c3ncc(-c4ccc(Cl)cc4)cn3)cc2)C(=O)O)cc1 [Compound 211]
17 | 2500 to 5000 | CC(C)(C)c1ccc(C(=O)N[C@@H](Cc2ccc(-c3ncc(-c4ccc(Cl)c(Cl)c4)cn3)cc2)C(=O)O)cc1 [Compound 213]
18 | 2500 to 5000 | COc1cccc(-c2cnc(-c3ccc(C[C@H](NC(=O)c4ccc(C(C)(C)C)cc4)C(=O)O)cc3)nc2)c1 [Compound 215]
19 | 2500 to 5000 | CC(C)(C)c1ccc(C(=O)N[C@@H](Cc2ccc(-c3ncc(-c4cccc(N5CCCCC5)c4)cn3)cc2)C(=O)O)cc1 [Compound 216]

The next lines start with the compound.

Row | SMILES | EC50 [nM]
20 | CCCCCCCOc1ccc(-c2cnc(-c3ccc(C[C@H](NC(=O)c4cc5cccnc5s4)C(=O)O)cc3)nc2)cc1 [Compound 158] | < 800
21 | CC(C)(C)c1ccc(-c2cnc(-c3ccc(C[C@H](NC(=O)c4ccc(S(C)(=O)=O)cc4)C(=O)O)cc3)nc2)cc1 [Compound 159] | 800 to 2500
22 | CC(C)Oc1ccc(C(=O)N[C@@H](Cc2ccc(-c3ncc(-c4ccc(C(C)(C)C)cc4)cn3)cc2)C(=O)O)cc1 [Compound 162] | 800 to 2500
23 | CC(C)Cc1ccc(C(=O)N[C@@H](Cc2ccc(-c3ncc(-c4ccc(C(C)(C)C)cc4)cn3)cc2)C(=O)O)cc1 [Compound 163] | 800 to 2500
24 | CC(C)(C)c1ccc(-c2cnc(-c3ccc(C[C@H](NC(=O)c4ccc(C(C)(C)C)s4)C(=O)O)cc3)nc2)cc1 [Compound 165] | 800 to 2500
25 | CC(C)(C)c1ccc(-c2cnc(-c3ccc(C[C@H](NC(=O)c4nnc(C(C)(C)C)s4)C(=O)O)cc3)nc2)cc1 [Compound 169] | 5000 to 10000
26 | COc1ccc(C(=O)N[C@@H](Cc2ccc(-c3ncc(-c4ccc(C(C)(C)C)cc4)cn3)cc2)C(=O)O)cc1 [Compound 170] | 800 to 2500
27 | CCOc1ccc(C(=O)N[C@@H](Cc2ccc(-c3ncc(-c4ccc(C(C)(C)C)cc4)cn3)cc2)C(=O)O)cc1 [Compound 171] | 800 to 2500
28 | CC(C)(C)Cc1ccc(C(=O)N[C@@H](Cc2ccc(-c3ncc(-c4ccc(C(C)(C)C)cc4)cn3)cc2)C(=O)O)cc1 [Compound 172] | 800 to 2500
29 | CC(C)(C)c1ccc(-c2cnc(-c3ccc(C[C@H](NC(=O)c4ccc(OC(F)(F)F)cc4)C(=O)O)cc3)nc2)cc1 [Compound 173] | 800 to 2500
30 | CC(C)(C)c1ccc(-c2cnc(-c3ccc(C[C@H](NC(=O)c4ccc(C(F)(F)F)cc4)C(=O)O)cc3)nc2)cc1 [Compound 174] | < 800
31 | CC(C)(C)c1ccc(-c2cnc(-c3ccc(C[C@H](NC(=O)c4ccc(O)cc4)C(=O)O)cc3)nc2)cc1 [Compound 175] | < 800
32 | CC(=O)c1ccc(C(=O)N[C@@H](Cc2ccc(-c3ncc(-c4ccc(C(C)(C)C)cc4)cn3)cc2)C(=O)O)cc1 [Compound 176] | 5000 to 10000
33 | CC(C)(C)c1ccc(-c2cnc(-c3ccc(C[C@H](NC(=O)c4ncc(C(C)(C)C)s4)C(=O)O)cc3)nc2)cc1 [Compound 177] | 800 to 2500
34 | CC(C)(C)c1ccc(-c2cnc(-c3ccc(C[C@H](NC(=O)c4cnn(C(C)(C)C)c4)C(=O)O)cc3)nc2)cc1 [Compound 178] | 800 to 2500
35 | CC(C)c1cc(C(=O)N[C@@H](Cc2ccc(-c3ncc(-c4ccc(C(C)(C)C)cc4)cn3)cc2)C(=O)O)cs1 [Compound 179] | 5000 to 10000
36 | CC(C)(C)c1ccc(-c2cnc(-c3ccc(C[C@@H](NC(=O)c4ccc(C(C)(C)C)s4)C(=O)O)cc3)nc2)cc1 [Compound 182] | 800 to 2500
37 | CCCCCCCOc1ccc(-c2cnc(-c3ccc(C[C@H](NC(=O)c4ccc(OS(C)(=O)=O)cc4)C(=O)O)cc3)nc2)cc1 [Compound 183] | 800 to 2500
38 | CCCCCCCOc1ccc(-c2cnc(-c3ccc(C[C@H](NS(=O)(=O)c4ccc(Cl)cc4)C(=O)O)cc3)nc2)cc1 [Compound 185] | 800 to 2500
39 | CCCCCCCOc1ccc(-c2cnc(-c3ccc(C[C@H](NS(=O)(=O)c4ccc(OC)cc4)C(=O)O)cc3)nc2)cc1 [Compound 186] | 800 to 2500
40 | CCCCCCCOc1ccc(-c2cnc(-c3ccc(C[C@H](NS(=O)(=O)c4ccc(C)cc4)C(=O)O)cc3)nc2)cc1 [Compound 187] | 2500 to 5000

Row | SMILES | EC50 [nM]
41 | CCCCCCCOc1ccc(-c2cnc(-c3ccc(C[C@H](NS(=O)(=O)c4ccc(Cl)c(Cl)c4)C(=O)O)cc3)nc2)cc1 [Compound 188] | 2500 to 5000
42 | CCCCCCCOc1ccc(-c2cnc(-c3ccc(C[C@H](NS(=O)(=O)c4ccc(OC(C)C)cc4)C(=O)O)cc3)nc2)cc1 [Compound 189] | 800 to 2500
43 | CCCCCCCOc1ccc(-c2cnc(-c3ccc(C[C@H](NS(=O)(=O)c4ccc(C(F)(F)F)cc4)C(=O)O)cc3)nc2)cc1 [Compound 190] | 2500 to 5000
44 | CCCCCCCOc1ccc(-c2cnc(-c3ccc(C[C@H](NC(=O)c4ccc(C(C)(C)C)s4)C(=O)O)cc3)nc2)cc1 [Compound 192, (S)-2-(5-(tert-butyl)thiophene-2-carboxamido)-3-(4-(5-(4-(heptyloxy)phenyl)-pyrimidin-2-yl)phenyl)propanoic acid] | < 800
45 | CC(C)c1ccc(-c2cnc(-c3ccc(C[C@H](NC(=O)c4ccc(C(C)(C)C)cc4)C(=O)O)cc3)nc2)cc1 [Compound 195] | 800 to 2500
46 | CC(C)(C)c1ccc(C(=O)N[C@@H](Cc2ccc(-c3ncc(-c4ccccc4)cn3)cc2)C(=O)O)cc1 [Compound 196] | 2500 to 5000
47 | Cn1ccc2c(-c3cnc(-c4ccc(C[C@H](NC(=O)c5ccc(C(C)(C)C)cc5)C(=O)O)cc4)nc3)cccc21 [Compound 197] | 2500 to 5000
48 | CC(C)Oc1ccc(-c2cnc(-c3ccc(C[C@H](NC(=O)c4ccc(C(C)(C)C)cc4)C(=O)O)cc3)nc2)cc1 [Compound 200] | 2500 to 5000
49 | CN(C)c1ccc(-c2cnc(-c3ccc(C[C@H](NC(=O)c4ccc(C(C)(C)C)cc4)C(=O)O)cc3)nc2)cc1 [Compound 201] | 2500 to 5000
50 | CN(C)c1cccc(-c2cnc(-c3ccc(C[C@H](NC(=O)c4ccc(C(C)(C)C)cc4)C(=O)O)cc3)nc2)c1 [Compound 202] | 5000 to 10000
51 | Cc1ccc(-c2cnc(-c3ccc(C[C@H](NC(=O)c4ccc(C(C)(C)C)cc4)C(=O)O)cc3)nc2)cc1 [Compound 203] | 5000 to 10000
52 | CC(C)(C)c1ccc(C(=O)N[C@@H](Cc2ccc(-c3ncc(-c4cccc(C(C)(C)C)c4)cn3)cc2)C(=O)O)cc1 [Compound 204] | 2500 to 5000
53 | CC(C)(C)c1ccc(C(=O)N[C@@H](Cc2ccc(-c3ncc(-c4ccc(-c5ccccc5)cc4)cn3)cc2)C(=O)O)cc1 [Compound 205] | 800 to 2500
54 | CC(C)(C)c1ccc(C(=O)N[C@@H](Cc2ccc(-c3ncc(-c4ccc(F)cc4)cn3)cc2)C(=O)O)cc1 [Compound 206] | 2500 to 5000
55 | CC(C)(C)c1ccc(C(=O)N[C@@H](Cc2ccc(-c3ncc(-c4cccc(F)c4)cn3)cc2)C(=O)O)cc1 [Compound 207] | 2500 to 5000
56 | CC(C)(C)c1ccc(C(=O)N[C@@H](Cc2ccc(-c3ncc(-c4ccc(F)cc4F)cn3)cc2)C(=O)O)cc1 [Compound 208] | 2500 to 5000
57 | CC(C)(C)c1ccc(C(=O)N[C@@H](Cc2ccc(-c3ncc(-c4ccc(C(F)(F)F)cc4)cn3)cc2)C(=O)O)cc1 [Compound 209] | 800 to 2500
58 | CC(C)(C)c1ccc(C(=O)N[C@@H](Cc2ccc(-c3ncc(-c4cccc(C(F)(F)F)c4)cn3)cc2)C(=O)O)cc1 [Compound 210] | 2500 to 5000
59 | CC(C)(C)c1ccc(C(=O)N[C@@H](Cc2ccc(-c3ncc(-c4cccc(Cl)c4)cn3)cc2)C(=O)O)cc1 [Compound 212] | 5000 to 10000
60 | COc1ccc(-c2cnc(-c3ccc(C[C@H](NC(=O)c4ccc(C(C)(C)C)cc4)C(=O)O)cc3)nc2)cc1OC [Compound 214] | 2500 to 5000
